Test system: Energy system protein genes
Assay: DNA chip mRNA expression in yeast, energy system protein genes (Table 4)
Format: cell-based, Saccharomyces cerevisiae S288C
In short: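 Ratios compare mRNA levels in stressed and control S. cerevisiae. Each toxicant was applied for two hours to log-phase cultures at 25° C. at a sub-lethal, growth-inhibiting level; fluorescent cDNA (Cy3- or Cy5-dUTP) was hybridized to a genome-wide yeast chip for over 12 h at 65° C.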

Structure (SMILES): CN(C)C(=S)SSC(=S)N(C)C [(10), Tetramethylthiuram disulfide]
- The level of expressed mRNA in the presence of chemical substance/The level of expressed mRNA in the absence of chemical substance (yeast gene YJL216C, cells incubated two hours with the chemical substance): 1.3
- The level of expressed mRNA in the presence of chemical substance/The level of expressed mRNA in the absence of chemical substance (yeast gene YJR009C): 1.3
- The level of expressed mRNA in the presence of chemical substance/The level of expressed mRNA in the absence of chemical substance (yeast gene YJR048W): 1.5
- The level of expressed mRNA in the presence of chemical substance/The level of expressed mRNA in the absence of chemical substance (yeast gene YJR121W, cells incubated two hours with the chemical substance): 1.3
- The level of expressed mRNA in the presence of chemical substance/The level of expressed mRNA in the absence of chemical substance (yeast gene YJR155W): 18.8
- The level of expressed mRNA in the presence of chemical substance/The level of expressed mRNA in the absence of chemical substance (yeast gene YKL016C, cells incubated two hours with the chemical substance): 1.8
- The level of expressed mRNA in the presence of chemical substance/The level of expressed mRNA in the absence of chemical substance (yeast gene YKL060C, cells incubated two hours with the chemical substance): 0.8
- The level of expressed mRNA in the presence of chemical substance/The level of expressed mRNA in the absence of chemical substance (yeast gene YKL141W, cells incubated two hours with the chemical substance): 0.5
- The level of expressed mRNA in the presence of chemical substance/The level of expressed mRNA in the absence of chemical substance (yeast gene YKL148C, cells incubated two hours with the chemical substance): 1.7
- The level of expressed mRNA in the presence of chemical substance/The level of expressed mRNA in the absence of chemical substance (yeast gene YKR009C, cells incubated two hours with the chemical substance): 2.1
- The level of expressed mRNA in the presence of chemical substance/The level of expressed mRNA in the absence of chemical substance (yeast gene YKR058W, cells incubated two hours with the chemical substance, 25° C., YPD medium): 1.2
- The level of expressed mRNA in the presence of chemical substance/The level of expressed mRNA in the absence of chemical substance (yeast gene YKR097W): 3.3
- The level of expressed mRNA in the presence of chemical substance/The level of expressed mRNA in the absence of chemical substance (yeast gene YLL041C, cells incubated two hours with the chemical substance): 0.8
- The level of expressed mRNA in the presence of chemical substance/The level of expressed mRNA in the absence of chemical substance (yeast gene YLR038C, cells incubated two hours with the chemical substance): 0.9
- The level of expressed mRNA in the presence of chemical substance/The level of expressed mRNA in the absence of chemical substance (yeast gene YLR044C, cells incubated two hours with the chemical substance): 1.2
- The level of expressed mRNA in the presence of chemical substance/The level of expressed mRNA in the absence of chemical substance (yeast gene YLR134W, cells incubated two hours with the chemical substance): 0.7
- The level of expressed mRNA in the presence of chemical substance/The level of expressed mRNA in the absence of chemical substance (yeast gene YLR258W, cells incubated two hours with the chemical substance): 1.3
- The level of expressed mRNA in the presence of chemical substance/The level of expressed mRNA in the absence of chemical substance (yeast gene YLR284C, cells incubated two hours with the chemical substance): 0.9
- The level of expressed mRNA in the presence of chemical substance/The level of expressed mRNA in the absence of chemical substance (yeast gene YLR295C, cells incubated two hours with the chemical substance, 25° C., YPD medium): 1.2
- The level of expressed mRNA in the presence of chemical substance/The level of expressed mRNA in the absence of chemical substance (yeast gene YLR304C, cells incubated two hours with the chemical substance): 2.2
- The level of expressed mRNA in the presence of chemical substance/The level of expressed mRNA in the absence of chemical substance (yeast gene YLR345W): 4.0
- The level of expressed mRNA in the presence of chemical substance/The level of expressed mRNA in the absence of chemical substance (yeast gene YLR354C, cells incubated two hours with the chemical substance): 0.9
- The level of expressed mRNA in the presence of chemical substance/The level of expressed mRNA in the absence of chemical substance (yeast gene YLR377C, cells incubated two hours with the chemical substance): 1.6
- The level of expressed mRNA in the presence of chemical substance/The level of expressed mRNA in the absence of chemical substance (yeast gene YLR395C, cells incubated two hours with the chemical substance): 0.9
- The level of expressed mRNA in the presence of chemical substance/The level of expressed mRNA in the absence of chemical substance (yeast gene YML087C): 4.9
- The level of expressed mRNA in the presence of chemical substance/The level of expressed mRNA in the absence of chemical substance (yeast gene YML120C, cells incubated two hours with the chemical substance): 1.5
- The level of expressed mRNA in the presence of chemical substance/The level of expressed mRNA in the absence of chemical substance (yeast gene YML129C, cells incubated two hours with the chemical substance): 2.2
- The level of expressed mRNA in the presence of chemical substance/The level of expressed mRNA in the absence of chemical substance (yeast gene YMR073C, cells incubated two hours with the chemical substance): 1.2
- The level of expressed mRNA in the presence of chemical substance/The level of expressed mRNA in the absence of chemical substance (yeast gene YMR118C): 1.4
- The level of expressed mRNA in the presence of chemical substance/The level of expressed mRNA in the absence of chemical substance (yeast gene YMR205C, cells incubated two hours with the chemical substance): 0.8
- The level of expressed mRNA in the presence of chemical substance/The level of expressed mRNA in the absence of chemical substance (yeast gene YMR261C, cells incubated two hours with the chemical substance): 1.3
- The level of expressed mRNA in the presence of chemical substance/The level of expressed mRNA in the absence of chemical substance (yeast gene YMR267W, cells incubated two hours with the chemical substance, 25° C., YPD medium): 0.8
- The level of expressed mRNA in the presence of chemical substance/The level of expressed mRNA in the absence of chemical substance (yeast gene YMR323W, cells incubated two hours with the chemical substance): 1.3
- The level of expressed mRNA in the presence of chemical substance/The level of expressed mRNA in the absence of chemical substance (yeast gene YNL071W): 1.2
- The level of expressed mRNA in the presence of chemical substance/The level of expressed mRNA in the absence of chemical substance (yeast gene YNL202W, cells incubated two hours with the chemical substance): 1.1
- The level of expressed mRNA in the presence of chemical substance/The level of expressed mRNA in the absence of chemical substance (yeast gene YNL241C): 7.4
- The level of expressed mRNA in the presence of chemical substance/The level of expressed mRNA in the absence of chemical substance (yeast gene YNL331C): 36.3
- The level of expressed mRNA in the presence of chemical substance/The level of expressed mRNA in the absence of chemical substance (yeast gene YOL086C, cells incubated two hours with the chemical substance): 1.2
- The level of expressed mRNA in the presence of chemical substance/The level of expressed mRNA in the absence of chemical substance (yeast gene YOL157C): 4.8
- The level of expressed mRNA in the presence of chemical substance/The level of expressed mRNA in the absence of chemical substance (yeast gene YOL165C): 23.3
- The level of expressed mRNA in the presence of chemical substance/The level of expressed mRNA in the absence of chemical substance (yeast gene YOR136W): 3.4
- The level of expressed mRNA in the presence of chemical substance/The level of expressed mRNA in the absence of chemical substance (yeast gene YOR142W, cells incubated two hours with the chemical substance): 1.5
- The level of expressed mRNA in the presence of chemical substance/The level of expressed mRNA in the absence of chemical substance (yeast gene YOR178C, cells incubated two hours with the chemical substance): 1.7
- The level of expressed mRNA in the presence of chemical substance/The level of expressed mRNA in the absence of chemical substance (yeast gene YOR388C, cells incubated two hours with the chemical substance): 1.4
- The level of expressed mRNA in the presence of chemical substance/The level of expressed mRNA in the absence of chemical substance (yeast gene YPL031C, cells incubated two hours with the chemical substance): 1.4
- The level of expressed mRNA in the presence of chemical substance/The level of expressed mRNA in the absence of chemical substance (yeast gene YPL061W, cells incubated two hours with the chemical substance): 0.7
- The level of expressed mRNA in the presence of chemical substance/The level of expressed mRNA in the absence of chemical substance (yeast gene YPL088W): 2.8
- The level of expressed mRNA in the presence of chemical substance/The level of expressed mRNA in the absence of chemical substance (yeast gene YPL171C): 50.6
- The level of expressed mRNA in the presence of chemical substance/The level of expressed mRNA in the absence of chemical substance (yeast gene YPL240C): 2.6
- The level of expressed mRNA in the presence of chemical substance/The level of expressed mRNA in the absence of chemical substance (yeast gene YPL262W, cells incubated two hours with the chemical substance): 5.8
- The level of expressed mRNA in the presence of chemical substance/The level of expressed mRNA in the absence of chemical substance (yeast gene YPL275W, cells incubated two hours with the chemical substance): 1.2
- The level of expressed mRNA in the presence of chemical substance/The level of expressed mRNA in the absence of chemical substance (yeast gene YPL276W, cells incubated two hours with the chemical substance): 1.8
- The level of expressed mRNA in the presence of chemical substance/The level of expressed mRNA in the absence of chemical substance (yeast gene YPR048W, cells incubated two hours with the chemical substance): 2.1
- The level of expressed mRNA in the presence of chemical substance/The level of expressed mRNA in the absence of chemical substance (yeast gene YPR184W, cells incubated two hours with the chemical substance): 3.2
